{
  "source": "patent US6653333B2",
  "about": "“Remedies or preventives for digestive diseases containing diaminotrifluoromethylpyridine derivatives” (Ishihara Sangyo Kaisha, Ltd., priority 2000, dated 2003)",
  "key": {"[1]": {"test_system": "rat sodium dextran sulfate (DSS) induced ulcerative colitis model", "test": "rat sodium dextran sulfate (DSS) induced ulcerative colitis model", "assay_type": "in vivo", "settings": "DSS rats", "text": "As an ulcerative colitis model, trinitrobenzenesulfonic acid (TNB) is usually used, but as a drug effect evaluation system to accomplish the present invention, a rat sodium dextran sulfate (DSS) induced ulcerative colitis model was used. It has been well known that said model is considered as an experimental model similar to human ulcerative colitis from many viewpoints such as inhibision of weight gain, presence or absence of bloody stool, symptoms of e.g. anemia and formation of erosion at the large intestine, and no formation of lesion in the small intestine [FOLIA PHARMACOLOGICA JAPONICA vol. 105, p. 145-152(1995)]. A therapeutic effect of N-(2-ethylsulfonylamino-5-trifluoromethyl-3-pyridyl)cyclohexanecarboxamide sodium salt monohydrate (hereinafter referred to as compound 1) over the test system was examined.\nThe compound 1 was used as a drug formulation. The formulation composition (content per one vial) was as follows.\nA 3% aqueous solution of sodium dextran sulfate (DSS: manufactured by Wako Pure Chemical Industries, Ltd.) was put in a drinking bottle, and rats [Crj: CD(SD), male, Charles River Japan, 7 weeks old when subjected to the test] were made to drink the solution freely for 11 days to cause colitis. After eleven days, rats which satisfied selection standards (among rats which discharged bloody stool continuously for at least two days including the selection day, ones having a weight loss at the selection day of less than 20 g as compared with the weight on the previous day and having a hemoglobin concentration of at least 12 g/dl) were selected, and divided into groups (ten rats/group) so that there would be no difference in the average weight among groups.\nWith respect to a non-treated group and groups treated with the compound 1, the 3% aqueous solution was changed to a 1% DSS aqueous solution at the day of division, and the rats were made to drink the solution freely for 14 days. Further, to the rats in the groups treated with the compound 1, the compound 1 was perorally administered once a day for 14 days from the day of division by means of a peroral sonde (dosage: 10 ml/kg). To the rats in the non-treated group and a normal group, distilled water for injection (manufactured by Otsuka Pharmaceutical Co., Ltd.) alone was perorally administered similarly. Here, the normal group rats were made to drink distilled water for injection freely instead of the DSS aqueous solution from initiation of the test to the day of anatomy.\nA 10 mg/ml aqueous solution of the compound 1 was prepared by using distilled water for injection (manufactured by Otsuka Pharmaceutical Co., Ltd.) and administered to the rats in a desired dosage.\nImmediately after collection of blood, the large intestine (colon and rectum) was excised, and its length was measured by means of a ruler in a sufficiently relaxed state.\nImmediately after the measurement, a fixing liquid was injected into the intestine, and the intestine was temporarily fixed for at least 1 hour in such a state that the lumen was approximately uniformly expanded. Then, the intestinal canal was dissected along the mesenterium adhered portion, and the intestine was completely fixed in an expanded state in a 10% neutral buffering formalin aqueous solution for at least one week. The intestine was washed with running water for about 5 minutes, and further washed with purified water three times, and then immersed in a 3% aqueous acetic acid solution for about 5 minutes as a pretreatment. Then, the intestine was immersed in a 1% Alcian blue (manufactured by Nacalai Tesque) (dissolved in a 3% aqueous acetic acid solution) and dyed for about 20 minutes, and then washed with a 3% aqueous acetic acid solution from 4 to 5 times until elution of Alcian blue disappeared. […]"}, "[2]": {"test_system": "TNBS induced rat Crohn's disease model", "test": "Trinitrobenzene Sulfonic Acid (TNBS) induced rat Crohn's disease model", "assay_type": "in vivo", "settings": "TNBS rats", "procedure": "The therapeutic effect of the compound 1 on TNBS induced rat Crohn's disease model was studied by the following method.\n(1) SD male rats (12 weeks old) were anesthetized with Nembutal and their abdomen was opened up, a TNBS solution (TNBS 160 mg/ml ethanol) was administered in 1 ml/kg in the colon located 10 cm below the ileocecum, and their abdomen was closed to prepare models, which were divided into a non-treated group and a group treated with the compound 1, each group consisting of 6 rats. No such a treatment was carried out for normal group rats. After preparation of the models, a drug formulation of the compound 1 of Test Example 1 diluted with distilled water was perorally administered to rats of the group treated with the compound 1 once a day for 7 days in a dosage of 10 mg/kg/day as calculated as anhydride of the compound 1. After completion of administration period, visual change, small intestine weight and mucosal myeloperoxidase activity in small intestine (mucosal MPO activity) were observed or measured. The visual change was evaluated by digitizing and compiling various changes. The ratio of the small intestine weight to the body weight was also calculated from the small intestine weight and the body weight."}},
  "data": [
    {"compound": "CCS(=O)(=O)Nc1ncc(C(F)(F)F)cc1NC(=O)C1CCCCC1.O.[Na]", "note": "[compound 1, N-(2-ethylsulfonylamino-5-trifluoromethyl-3-pyridyl)cyclohexanecarboxamide sodium salt monohydrate]", "values": [
      {"measurement": "Erosion suppression rate (large intestine erosion area vs non-treated group)", "setting": "[1]; 1 mg/kg/day perorally once a day for 14 days", "result": 45, "unit": "%"},
      {"measurement": "Erosion suppression rate (large intestine erosion area vs non-treated group)", "setting": "[1]; 10 mg/kg/day perorally once a day for 14 days", "result": 56, "unit": "%"},
      {"measurement": "Erosion suppression rate (large intestine erosion area vs non-treated group)", "setting": "[1]; 100 mg/kg/day perorally once a day for 14 days", "result": 62, "unit": "%"},
      {"measurement": "Anemia as a result of melena due to the erosion", "setting": "[1]; peroral 14 days", "result": "decreases anemia"},
      {"measurement": "Histopathological study: inflammation at the submucosa in the erosion formed region", "setting": "[1]; peroral 14 days", "result": "remarkable decrease of inflammation at the submucosa"},
      {"measurement": "Histopathological study: mucosal tissue reconstruction", "setting": "[1]; peroral 14 days", "result": "normal tissue reconstruction by regeneration of the mucosa took place"},
      {"measurement": "Length of large intestine: intestine wall hyperplasia", "setting": "[1]; peroral 14 days", "result": "decreases intestine wall hyperplasia"},
      {"measurement": "Inflammatory reaction and tissue impairment in the small intestine", "setting": "[2]; 10 mg/kg/day perorally for 7 days", "result": "the inflammatory reaction and tissue impairment in the small intestine were decreased"},
      {"measurement": "Ratio of small intestine to body weight (Mean)", "setting": "[2]; 10 mg/kg/day perorally once a day for 7 days, non-treated 0.0065, normal 0.0030", "result": 0.0042},
      {"measurement": "Small intestine weight (Mean)", "setting": "[2]; 10 mg/kg/day perorally once a day for 7 days, non-treated 2.18, normal 1.11", "result": 1.63},
      {"measurement": "Visual score (Mean)", "setting": "[2]; 10 mg/kg/day perorally once a day for 7 days, non-treated 7.8, normal 1.5", "result": 4.2},
      {"measurement": "Mucosal MPO activity (Mean)", "setting": "[2]; 10 mg/kg/day perorally once a day for 7 days, non-treated 8.93, normal 0.48", "result": 0.89}
    ]}
  ]
}
